Test results from patent US10377772B2, “Macrocyclic LRRK2 kinase inhibitors” (Oncodesign S.A., priority 2014, dated 2019).
pIC50: −log10 of the molar value.

target: LRRK2 recombinant protein (Homo sapiens (Human), UniProt Q5S007); experiment: radiometric protein kinase assay (33PanQinase Activity Assay) for LRRK2; format: biochemical; details: ATP 0.3 μM, LRRK2 7.3 nM, substrate GSK3(14-27), 30° C. for 60 minutes
Method: The inhibition of LRRK2 kinase was assessed using LRRK2 recombinant protein in an in vitro peptide-based kinase assay.
A radiometric protein kinase assay (^33PanQinase® Activity Assay) is used for measuring the kinase activity. All assays are performed in 96-well FlashPlates™ from Perkin Elmer in a 50 μl reaction volume. The reaction cocktail is pipetted in 4 steps in the following order: • 10 μl of non-radioactive ATP solution (in H2O) • 25 μl of assay buffer/[γ-^33P]-ATP mixture • 5 μl of test sample in 10% DMSO • 10 μl of enzyme/substrate mixture
The assay for LRRK2 contains 70 mM HEPES-NaOH pH 7.5, 3 mM MgCl2, 3 mM MnCl2, 3 μM Na-orthovanadate, 1.2 mM DTT, 50 μg/ml PEG20000, ATP (0.3 μM), [γ-^33P]-ATP (approx. […] per well), protein kinase LRRK2 (7.3 nM) and substrate (GSK3(14-27), 1.0 μg/50 μl).
The kinase is obtained from Invitrogen Corporation.
The reaction cocktails were incubated at 30° C. for 60 minutes. The reaction was stopped with 50 μl of 2% (v/v) H3PO4, plates were aspirated and washed two times with 200 μl 0.9% (w/v) NaCl. Incorporation of ^33Pi (counting of “cpm”) was determined with a microplate scintillation counter.
The compounds are dissolved to 10 mM in DMSO. Where needed, solutions are sonicated in a bath sonicator.
Table 2 provides the pIC50 values of the compounds according to the invention, obtained using the above mentioned kinase assay.

Sequence of LRRK2 recombinant protein (Q5S007 whole entry): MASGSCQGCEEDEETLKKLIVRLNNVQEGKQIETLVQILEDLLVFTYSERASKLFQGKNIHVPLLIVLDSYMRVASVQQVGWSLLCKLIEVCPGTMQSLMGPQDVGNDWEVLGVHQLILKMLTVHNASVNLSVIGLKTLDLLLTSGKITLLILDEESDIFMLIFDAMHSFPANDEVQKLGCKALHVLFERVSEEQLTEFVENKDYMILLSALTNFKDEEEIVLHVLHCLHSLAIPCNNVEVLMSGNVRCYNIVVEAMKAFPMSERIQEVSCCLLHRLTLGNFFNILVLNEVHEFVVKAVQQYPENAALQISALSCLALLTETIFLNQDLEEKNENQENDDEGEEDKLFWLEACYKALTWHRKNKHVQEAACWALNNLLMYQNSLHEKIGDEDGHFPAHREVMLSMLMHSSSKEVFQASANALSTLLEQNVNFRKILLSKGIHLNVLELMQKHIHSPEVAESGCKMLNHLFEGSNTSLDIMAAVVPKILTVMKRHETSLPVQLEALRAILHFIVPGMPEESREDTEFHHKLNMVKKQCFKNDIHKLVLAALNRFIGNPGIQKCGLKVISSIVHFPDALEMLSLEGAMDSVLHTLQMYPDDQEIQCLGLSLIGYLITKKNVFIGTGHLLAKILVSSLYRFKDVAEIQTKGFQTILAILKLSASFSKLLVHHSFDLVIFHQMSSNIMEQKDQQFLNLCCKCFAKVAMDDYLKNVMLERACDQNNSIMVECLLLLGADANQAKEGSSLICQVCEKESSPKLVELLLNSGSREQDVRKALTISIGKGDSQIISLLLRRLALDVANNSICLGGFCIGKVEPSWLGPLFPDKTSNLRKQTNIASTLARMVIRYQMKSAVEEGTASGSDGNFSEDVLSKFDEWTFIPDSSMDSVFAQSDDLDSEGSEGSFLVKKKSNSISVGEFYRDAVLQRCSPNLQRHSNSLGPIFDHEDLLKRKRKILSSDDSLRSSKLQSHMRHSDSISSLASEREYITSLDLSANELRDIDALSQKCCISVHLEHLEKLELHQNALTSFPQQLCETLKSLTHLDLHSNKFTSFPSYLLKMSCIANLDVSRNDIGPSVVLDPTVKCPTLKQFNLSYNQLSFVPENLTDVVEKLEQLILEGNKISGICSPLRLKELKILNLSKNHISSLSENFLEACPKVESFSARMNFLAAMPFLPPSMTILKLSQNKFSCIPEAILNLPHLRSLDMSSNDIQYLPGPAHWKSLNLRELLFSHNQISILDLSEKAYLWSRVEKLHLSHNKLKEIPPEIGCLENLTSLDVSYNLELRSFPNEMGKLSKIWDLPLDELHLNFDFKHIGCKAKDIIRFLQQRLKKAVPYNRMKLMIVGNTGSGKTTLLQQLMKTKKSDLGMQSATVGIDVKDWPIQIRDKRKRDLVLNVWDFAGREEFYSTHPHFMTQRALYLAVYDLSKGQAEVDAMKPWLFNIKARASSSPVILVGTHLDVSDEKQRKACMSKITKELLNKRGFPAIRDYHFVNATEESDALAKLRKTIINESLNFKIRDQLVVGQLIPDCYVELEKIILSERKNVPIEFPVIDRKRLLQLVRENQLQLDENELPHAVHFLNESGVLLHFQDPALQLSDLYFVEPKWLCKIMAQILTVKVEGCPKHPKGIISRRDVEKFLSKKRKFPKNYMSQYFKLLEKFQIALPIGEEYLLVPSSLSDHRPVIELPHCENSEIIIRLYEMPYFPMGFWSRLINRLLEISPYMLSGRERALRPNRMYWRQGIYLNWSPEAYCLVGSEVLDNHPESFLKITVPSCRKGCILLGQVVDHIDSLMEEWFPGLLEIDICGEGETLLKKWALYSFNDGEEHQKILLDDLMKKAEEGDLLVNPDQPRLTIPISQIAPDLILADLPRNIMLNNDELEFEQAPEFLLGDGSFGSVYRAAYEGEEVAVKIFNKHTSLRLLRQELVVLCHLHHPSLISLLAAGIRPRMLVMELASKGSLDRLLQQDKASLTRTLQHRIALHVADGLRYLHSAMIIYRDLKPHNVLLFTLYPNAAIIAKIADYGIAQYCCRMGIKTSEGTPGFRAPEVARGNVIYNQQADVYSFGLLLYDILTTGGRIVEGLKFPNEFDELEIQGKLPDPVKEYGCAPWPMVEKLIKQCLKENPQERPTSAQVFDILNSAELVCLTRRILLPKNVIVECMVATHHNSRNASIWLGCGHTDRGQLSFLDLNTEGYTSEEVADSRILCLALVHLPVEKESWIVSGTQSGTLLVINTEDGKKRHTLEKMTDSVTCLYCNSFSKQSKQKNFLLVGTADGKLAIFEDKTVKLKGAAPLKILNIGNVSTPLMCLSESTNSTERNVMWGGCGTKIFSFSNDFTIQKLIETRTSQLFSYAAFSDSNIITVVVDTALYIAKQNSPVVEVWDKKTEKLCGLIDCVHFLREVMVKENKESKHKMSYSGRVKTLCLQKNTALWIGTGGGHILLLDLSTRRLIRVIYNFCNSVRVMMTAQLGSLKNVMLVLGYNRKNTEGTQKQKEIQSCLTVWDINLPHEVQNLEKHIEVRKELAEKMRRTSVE

| pIC50 | Compound |
| --- | --- |
| > 7.00 | Fc1ccc2cc1-c1cnn3ccc(nc13)NCCN1C[C@H]3CCCN3C[C@H]1CO2 [Example N27] |
| > 7.00 | Fc1ccc2cc1-c1cnn3ccc(nc13)NCCN1C[C@@H](CN3CCC[C@H]3C1)O2 [Example N43] |
| > 7.00 | CC(C)[C@H]1CN2CCNc3ccn4ncc(c4n3)-c3cc(ccc3F)O[C@H](CN1)C2 [Example N51] |
| > 7.00 | CN1CCN2C[C@H](CN3CCC[C@H]3C2)Oc2ccc(F)c(c2)-c2cnn3ccc1nc23 [Example N31] |
| > 7.00 | Fc1ccc2cc1-c1cnn3ccc(nc13)NCCN1CCC(CC1)N2 [Example N4] |
| 6.00 to 7.00 | Fc1ccc2cc1-c1cnn3ccc(nc13)OCCCN1CCC[C@H]1CN2 [Example N13] |
| > 7.00 | CCN1C[C@H]2COc3ccc(F)c(c3)-c3cnn4ccc(nc34)NCCN2C[C@H]1C [Example N50] |
| 6.00 to 7.00 | Fc1ccc2cc1-c1cnn3ccc(nc13)NCCN1C[C@@H](F)C[C@H]1CO2 [Example N39] |
| > 7.00 | C[C@@H]1CN2CCNc3ccn4ncc(c4n3)-c3cc(ccc3F)OC[C@@H]2CN1C [Example N46] |
| > 7.00 | C[C@@H]1CN2CCNc3ccn4ncc(c4n3)-c3cc(ccc3F)OC[C@@H]2CN1 [Example N45] |
| > 7.00 | Fc1cc(Cl)c2cc1-c1cnn3ccc(nc13)NCCN1CCC[C@H]1CO2 [Example N26] |
| > 7.00 | CN1c2ccn3ncc(c3n2)-c2cc(ccc2F)OCCN2CC[C@@H]1C2 [Example N61] |
| > 7.00 | Fc1ccc2cc1-c1cnn3ccc(nc13)NCCN1CCC(CC1)O2 [Example N33] |
| > 7.00 | CN1CCN2C[C@@H](CN3CCC[C@H]3C2)Oc2ccc(F)c(c2)-c2cnn3ccc1nc23 [Example N44] |
| > 7.00 | CN1CCN2CCOC[C@H]2COc2ccc(F)c(c2)-c2cnn3ccc1nc23 [Example N25] |
| > 7.00 | Fc1ccc2cc1-c1cnn3ccc(nc13)NCCN1CCNC[C@H](C1)O2 [Example N28] |
| > 7.00 | c1cc2cc(c1)-c1cnn3ccc(nc13)NCCN1CCC[C@H]1CO2 [Example N1] |
| > 7.00 | Fc1ccc2cc1-c1cnn3ccc(nc13)N[C@H]1CCCN(CCO2)C1 [Example N57] |

| pIC50 | Compound |
| --- | --- |
| > 7.00 | Fc1ccc2cc1-c1cnn3ccc(nc13)NCCCN1CCC[C@H]1CO2 [Example N14] |
| > 7.00 | CN1CCN2CCN(C)c3ccn4ncc(c4n3)-c3cc(ccc3F)OC[C@@H]2C1 [Example N24] |
| > 7.00 | CN1CCN2CCNc3ccn4ncc(c4n3)-c3cc(ccc3F)OC[C@@H]2C1 [Example N23] |
| > 7.00 | CN1CCN2CCCC[C@H]2COc2ccc(F)c(c2)-c2cnn3ccc1nc23 [Example N19] |
| > 7.00 | Fc1ccc2cc1-c1cnn3ccc(nc13)NCCN1CCC=C[C@H]1CO2 [Example N41] |
| > 7.00 | Fc1ccc2cc1-c1cnn3ccc(nc13)NC1CCN(CCCN2)C1 (stereo not drawn) [Example N6] |
| > 7.00 | Cc1cc(F)c2cc1NC[C@@H]1CCCN1CCNc1ccn3ncc-2c3n1 [Example N10] |
| > 7.00 | CC(=O)N1CCN2CCNc3ccn4ncc(c4n3)-c3cc(ccc3F)OC[C@@H]2C1 [Example N32] |
| > 7.00 | C[C@H]1C[C@@H]2CCN1CCNc1ccn3ncc(c3n1)-c1cc(ccc1F)O2 [Example N40] |
| > 7.00 | Fc1ccc2cc1-c1cnn3ccc(nc13)CCCN1CCC[C@H]1CO2 [Example N37] |
| > 7.00 | Fc1ccc2cc1-c1cnn3ccc(nc13)NCCN1CCCC[C@H](C1)O2 [Example N18] |
| > 7.00 | Fc1ccc2cc1-c1cnc3ccc(nn13)NCCN1CCC[C@H]1CO2 [Example N52] |
| > 7.00 | Fc1ccc2cc1-c1cnn3ccc(nc13)NCCN1C[C@@H]3CCCN3C[C@H]1CO2 [Example N38] |
| > 7.00 | CN1CCN2C[C@H]3CCCN3C[C@H]2COc2ccc(F)c(c2)-c2cnn3ccc1nc23 [Example N29] |
| > 7.00 | CN1CCN2CCC[C@H]2COc2ccc(F)c(c2)-c2cnn3ccc1nc23 [Example N11] |
| > 7.00 | CN1CCN2CCC(CC2)Oc2ccc(F)c(c2)-c2cnn3ccc1nc23 [Example N34] |
| > 7.00 | Fc1ccc2cc1-c1cnn3ccc(nc13)NCCN1C[C@H]3CCCN3C[C@@H]1CO2 [Example N30] |

The next lines start with the molecule.

| Compound | pIC50 |
| --- | --- |
| Fc1ccc2cc1-c1cnn3ccc(nc13)N[C@@H]1CCN(CCO2)C1 [Example N60] | > 7.00 |
| C[C@@H]1CN2CCNc3ccn4ncc(c4n3)-c3cc(ccc3F)OC[C@@H]2CN1CC1CC1 [Example N49] | > 7.00 |
| CN1CCN2CCC[C@H]2CNc2ccc(F)c(c2)-c2cnn3ccc1nc23 [Example N16] | > 7.00 |
| C[C@H]1CN2CCNc3ccn4ncc(c4n3)-c3cc(ccc3F)OC[C@@H]2CN1 [Example N53] | > 7.00 |
| Fc1ccc2cc1-c1cnn3ccc(nc13)NCCN1C[C@H](F)C[C@H]1CO2 [Example N12] | > 7.00 |
| CC1(C)CN2CCNc3ccn4ncc(c4n3)-c3cc(ccc3F)OC[C@@H]2CN1 [Example N55] | > 7.00 |
| C=CCN1C[C@H]2COc3ccc(F)c(c3)-c3cnn4ccc(nc34)NCCN2CC1(C)C [Example N63] | > 7.00 |
| Fc1ccc2cc1-c1cnn3ccc(nc13)NCCN1CCC[C@H]1CO2 [Example N8] | > 7.00 |
| Fc1ccc2cc1-c1cnn3ccc(nc13)OCCN1CCC(CC1)N2 [Example N7] | > 7.00 |
| CCCN1C[C@H]2COc3ccc(F)c(c3)-c3cnn4ccc(nc34)NCCN2C[C@H]1C [Example N48] | > 7.00 |
| Fc1ccc2cc1-c1cnn3ccc(nc13)NC1CCN(CCN2)CC1 [Example N3] | > 7.00 |
| Fc1ccc2cc1-c1cnn3ccc(nc13)NCCN1CCCC[C@H]1CO2 [Example N17] | > 7.00 |
| Fc1ccc2cc1-c1cnn3ccc(nc13)OCCN1CCC[C@H]1CN2 [Example N21] | > 7.00 |
| Fc1ccc2cc1-c1cnn3ccc(nc13)NCCN1CCNC[C@H]1CO2 [Example N20] | > 7.00 |
| CN1CCN2CCNc3ccn4ncc(c4n3)-c3cc(ccc3F)OC[C@H]2C1 [Example N36] | > 7.00 |
| C[C@H]1CN2CCNc3ccn4ncc(c4n3)-c3cc(ccc3F)O[C@H](CN1)C2 [Example N54] | > 7.00 |
| Fc1ccc2cc1-c1cnn3ccc(nc13)NCCN1CCNC[C@@H]1CO2 [Example N35] | > 7.00 |
| Fc1ccc2cc1-c1cnc3ccc(nn13)NCCN1CCCC[C@H](C1)O2 [Example N59] | > 7.00 |
| Fc1ccc2cc1-c1cnn3ccc(nc13)NCCN1CCOC[C@H]1CO2 [Example N22] | > 7.00 |
| Fc1ccc2cc1-c1cnn3ccc(nc13)NCCC1CCCN1CCN2 (stereo not drawn) [Example N5] | > 7.00 |
| CN1c2ccn3ncc(c3n2)-c2cc(ccc2F)OCCN2CCC1CC2 [Example N15] | > 7.00 |
| CN1CCN2C[C@@H]3CCCN3C[C@H]2COc2ccc(F)c(c2)-c2cnn3ccc1nc23 [Example N42] | > 7.00 |
| CC1(C)CN2CCNc3ccn4ncc(c4n3)-c3cc(ccc3F)O[C@H](CN1)C2 [Example N58] | > 7.00 |
| CC(C)[C@H]1CN2CCN(C)c3ccn4ncc(c4n3)-c3cc(ccc3F)OC[C@@H]2CN1 [Example N56] | 6.00 to 7.00 |
| Fc1ccc2cc1-c1cnn3ccc(nc13)OC1CCN(CCN2)CC1 [Example N9] | 6.00 to 7.00 |
| Fc1ccc2cc1-c1cnn3ccc(nc13)NCCN1CCC[C@H]1CN2 [Example N2] | > 7.00 |
| C[C@@H]1CN2CCNc3ccn4ncc(c4n3)-c3cc(ccc3F)OC[C@@H]2CN1C1CC1 [Example N47] | > 7.00 |
| CC1(C)CN2CCNc3ccn4ncc(c4n3)-c3cc(ccc3F)OC[C@@H]2CN1C1CC1 [Example N62] | > 7.00 |
